Columns and labels:
[1] = Dissolution test in fasted state simulated intestinal fluid; assay type: physicochemical; details: for CONCENTRATION (dissolution): fasted state simulated intestinal fluid pH 6.5, 37° C., 50 rpm, in terms of compound (I); for concentration achieved relative to the concentration of compound (I): dissolution test, fasted state simulated intestinal fluid
Method: Each of compound (I) (50 mg), the compound of Example 1 (30 mg) and the compound of Example 2 (30 mg) was filled into a hydroxypropyl methylcellulose capsule, together with an equal weight of lactose hydrate. A 708-DS from Agilent Technologies was equipped with small stirring paddles and small vessels, and used as a dissolution test apparatus. Each drug-filled capsule was added to 50 ml of fasted state simulated intestinal fluid (a phosphate buffer pH 6.5 containing 0.75 mM lecithin and 3 mM sodium taurocholate) which had been warmed to 37° C. The drug was dissolved by rotating the stirring paddle at a speed of 50 rpm. The dissolved solution was sampled over time and the drug concentrations were measured by HPLC. Such dissolution tests using fasted state simulated intestinal fluid are often used to evaluate the dissolution and absorption characteristics of drugs (e.g., Takano et al., “Oral absorption of poorly water-soluble drugs: computer simulation of fraction absorbed in humans from a miniscale dissolution test”, Pharm Res., vol. 23, pp. 1144-1156, 2006). The results were shown in Table 1 and the graph in FIG. 12.

[2] = Test on oral absorption characteristics in dogs; assay type: in vivo, beagle dogs; details: for AREA UNDER PLASMA CONCENTRATION-TIME CURVE, MEAN: mean of 4 beagle dogs; for PLASMA CONCENTRATION MEAN: mean of dogs

COc1ncc(C)c(-c2ccc3c(c2)[nH]c(=O)c2cnn([C@H]4CCOC4)c23)c1C.O=S(=O)(O)c1ccccc1 [Example 2, (S)-7-(2-methoxy-3,5-dimethylpyridin-4-yl)-1-(tetrahydrofuran-3-yl)-1H-pyrazolo[4,3-c]quinolin-4(5H)-one Monobenzenesulfonate Salt]
CONCENTRATION (dissolution) ([1]; 6 minutes): 0.0 µg/mL | CONCENTRATION (dissolution) ([1]; 10 minutes): 0.5 µg/mL | CONCENTRATION (dissolution) ([1]; 15 minutes): 7.3 µg/mL | CONCENTRATION (dissolution) ([1]; 20 minutes): 9.3 µg/mL | CONCENTRATION (dissolution) ([1]; 30 minutes): 10.2 µg/mL | CONCENTRATION (dissolution) ([1]; 60 minutes): 10.7 µg/mL | CONCENTRATION (dissolution) ([1]; 90 minutes): 10.6 µg/mL | CONCENTRATION (dissolution) ([1]; 120 minutes): 10.7 µg/mL | CONCENTRATION (dissolution) ([1]; 180 minutes): 9.4 µg/mL | CONCENTRATION (dissolution) ([1]; 240 minutes): 9.0 µg/mL | concentration achieved relative to the concentration of compound (I) [1]: about 2 fold

COc1ncc(C)c(-c2ccc3c(c2)[nH]c(=O)c2cnn([C@H]4CCOC4)c23)c1C.O=C(O)/C=C\C(=O)O [Example 1, (S)-7-(2-methoxy-3,5-dimethylpyridin-4-yl)-1-(tetrahydrofuran-3-yl)-1H-pyrazolo[4,3-c]quinolin-4(5H)-one Monomaleate Salt]
PLASMA CONCENTRATION ([2]; Dog 1, 0.25 hours, oral capsule, 100 mg in terms of the free form): BQL | PLASMA CONCENTRATION ([2]; Dog 1, 0.5 hours, oral capsule, 100 mg in terms of the free form): 0.428 µg/mL | PLASMA CONCENTRATION ([2]; Dog 1, 1 hour, oral capsule, 100 mg in terms of the free form): 0.506 µg/mL | PLASMA CONCENTRATION ([2]; Dog 1, 2 hours, oral capsule, 100 mg in terms of the free form): 0.343 µg/mL | PLASMA CONCENTRATION ([2]; Dog 1, 4 hours, oral capsule, 100 mg in terms of the free form): 0.219 µg/mL | PLASMA CONCENTRATION ([2]; Dog 1, 6 hours, oral capsule, 100 mg in terms of the free form): 0.158 µg/mL | PLASMA CONCENTRATION ([2]; Dog 1, 8 hours, oral capsule, 100 mg in terms of the free form): 0.134 µg/mL | PLASMA CONCENTRATION ([2]; Dog 1, 24 hours, oral capsule, 100 mg in terms of the free form): 0.102 µg/mL | AREA UNDER PLASMA CONCENTRATION-TIME CURVE ([2]; Dog 1, oral capsule, 100 mg in terms of the free form): 3.83 µg·h/mL | PLASMA CONCENTRATION ([2]; Dog 2, 0.25 hours, oral capsule, 100 mg in terms of the free form): BQL | PLASMA CONCENTRATION ([2]; Dog 2, 0.5 hours, oral capsule, 100 mg in terms of the free form): 0.140 µg/mL | PLASMA CONCENTRATION ([2]; Dog 2, 1 hour, oral capsule, 100 mg in terms of the free form): 0.457 µg/mL | PLASMA CONCENTRATION ([2]; Dog 2, 2 hours, oral capsule, 100 mg in terms of the free form): 0.469 µg/mL | PLASMA CONCENTRATION ([2]; Dog 2, 4 hours, oral capsule, 100 mg in terms of the free form): 0.313 µg/mL | PLASMA CONCENTRATION ([2]; Dog 2, 6 hours, oral capsule, 100 mg in terms of the free form): 0.224 µg/mL | PLASMA CONCENTRATION ([2]; Dog 2, 8 hours, oral capsule, 100 mg in terms of the free form): 0.199 µg/mL | PLASMA CONCENTRATION ([2]; Dog 2, 24 hours, oral capsule, 100 mg in terms of the free form): 0.023 µg/mL | AREA UNDER PLASMA CONCENTRATION-TIME CURVE ([2]; Dog 2, oral capsule, 100 mg in terms of the free form): 4.16 µg·h/mL | PLASMA CONCENTRATION ([2]; Dog 3, 0.5 hours, oral capsule, 100 mg in terms of the free form): 0.377 µg/mL | PLASMA CONCENTRATION ([2]; Dog 3, 1 hour, oral capsule, 100 mg in terms of the free form): 0.422 µg/mL | PLASMA CONCENTRATION ([2]; Dog 3, 2 hours, oral capsule, 100 mg in terms of the free form): 0.337 µg/mL | PLASMA CONCENTRATION ([2]; Dog 3, 4 hours, oral capsule, 100 mg in terms of the free form): 0.272 µg/mL | PLASMA CONCENTRATION ([2]; Dog 3, 6 hours, oral capsule, 100 mg in terms of the free form): 0.217 µg/mL | PLASMA CONCENTRATION ([2]; Dog 3, 8 hours, oral capsule, 100 mg in terms of the free form): 0.147 µg/mL | PLASMA CONCENTRATION ([2]; Dog 3, 24 hours, oral capsule, 100 mg in terms of the free form): 0.020 µg/mL | AREA UNDER PLASMA CONCENTRATION-TIME CURVE ([2]; Dog 3, oral capsule, 100 mg in terms of the free form): 3.49 µg·h/mL | PLASMA CONCENTRATION ([2]; Dog 4, 0.25 hours, oral capsule, 100 mg in terms of the free form): BQL | PLASMA CONCENTRATION ([2]; Dog 4, 1 hour, oral capsule, 100 mg in terms of the free form): 0.422 µg/mL | PLASMA CONCENTRATION ([2]; Dog 4, 2 hours, oral capsule, 100 mg in terms of the free form): 0.401 µg/mL | PLASMA CONCENTRATION ([2]; Dog 4, 4 hours, oral capsule, 100 mg in terms of the free form): 0.322 µg/mL | PLASMA CONCENTRATION ([2]; Dog 4, 6 hours, oral capsule, 100 mg in terms of the free form): 0.248 µg/mL | PLASMA CONCENTRATION ([2]; Dog 4, 8 hours, oral capsule, 100 mg in terms of the free form): 0.210 µg/mL | PLASMA CONCENTRATION ([2]; Dog 4, 24 hours, oral capsule, 100 mg in terms of the free form): 0.074 µg/mL | AREA UNDER PLASMA CONCENTRATION-TIME CURVE ([2]; Dog 4, oral capsule, 100 mg in terms of the free form): 4.54 µg·h/mL | concentration at 0.25 h ([2]; beagle, dog, plasma, po, 100 mg, Dog 3, 0.25 hours, oral capsule, 100 mg in terms of the free form): 279 ng/mL | concentration at 0.5 h ([2]; beagle, dog, plasma, po, 100 mg, Dog 4, 0.5 hours, oral capsule, 100 mg in terms of the free form): 6 ng/mL | AREA UNDER PLASMA CONCENTRATION-TIME CURVE, MEAN ([2]; oral capsule, 100 mg in terms of the free form, Monomaleate Salt): 4.00 ± 0.45 µg·h/mL | AREA UNDER PLASMA CONCENTRATION-TIME CURVE, MEAN ([2]; oral capsule, 100 mg in terms of the free form, listed as EXAMPLE 1, Monomaleate Salt): 4.00 µg·h/mL | PLASMA CONCENTRATION MEAN ([2]; 0.5 hours, oral capsule, 100 mg in terms of the free form): 0.315 µg/mL | PLASMA CONCENTRATION MEAN ([2]; 1 hour, oral capsule, 100 mg in terms of the free form): 0.452 µg/mL | PLASMA CONCENTRATION MEAN ([2]; 2 hours, oral capsule, 100 mg in terms of the free form): 0.388 µg/mL | PLASMA CONCENTRATION MEAN ([2]; 4 hours, oral capsule, 100 mg in terms of the free form): 0.282 µg/mL | PLASMA CONCENTRATION MEAN ([2]; 6 hours, oral capsule, 100 mg in terms of the free form): 0.212 µg/mL | PLASMA CONCENTRATION MEAN ([2]; 8 hours, oral capsule, 100 mg in terms of the free form): 0.172 µg/mL | PLASMA CONCENTRATION MEAN ([2]; 24 hours, oral capsule, 100 mg in terms of the free form): 0.055 µg/mL | absorption rate compared with compound (I) ([2]; oral capsule to beagle dogs, crossover): higher | CONCENTRATION (dissolution) ([1]; 6 minutes): 6.4 µg/mL | CONCENTRATION (dissolution) ([1]; 10 minutes): 11.8 µg/mL | CONCENTRATION (dissolution) ([1]; 15 minutes): 20.8 µg/mL | CONCENTRATION (dissolution) ([1]; 20 minutes): 23.3 µg/mL | CONCENTRATION (dissolution) ([1]; 30 minutes): 27.9 µg/mL | CONCENTRATION (dissolution) ([1]; 60 minutes): 25.0 µg/mL | CONCENTRATION (dissolution) ([1]; 90 minutes): 23.9 µg/mL | CONCENTRATION (dissolution) ([1]; 120 minutes): 22.1 µg/mL | CONCENTRATION (dissolution) ([1]; 180 minutes): 18.8 µg/mL | CONCENTRATION (dissolution) ([1]; 240 minutes): 18.8 µg/mL | concentration achieved relative to the concentration of compound (I) [1]: 4- to 5 fold

— patent US9573947B2, “Salt of pyrazoloquinoline derivative, and crystal thereof” (Eisai R&D Management Co., Ltd., priority 2013, dated 2017)
